In patent US5364842A (priority 1993, dated 1994):
Values joined by “and” are separate entries in the source; they are usually repeats but may differ in a detail not shown here. Identical values can stand only once.

How the values were obtained:
[1] = system: potassium-stimulated acetylcholine release from striatal slices; conditions: 1 µM
[2] = system: potassium-stimulated dopamine release from striatal slices; assay type: cell-based, rat; conditions: 1 µM
[3] = system: voltage-gated calcium currents in IMR-32 cells; assay type: cell-based, human
[4] = target: N-type or omega HVA neuronal calcium channels; calcium currents in N1E-115 neuroblastoma cells (Mus musculus, UniProt O55017); assay type: cell-based
N-type or omega HVA neuronal calcium channels; calcium currents in N1E-115 neuroblastoma cells, sequence (O55017 whole entry): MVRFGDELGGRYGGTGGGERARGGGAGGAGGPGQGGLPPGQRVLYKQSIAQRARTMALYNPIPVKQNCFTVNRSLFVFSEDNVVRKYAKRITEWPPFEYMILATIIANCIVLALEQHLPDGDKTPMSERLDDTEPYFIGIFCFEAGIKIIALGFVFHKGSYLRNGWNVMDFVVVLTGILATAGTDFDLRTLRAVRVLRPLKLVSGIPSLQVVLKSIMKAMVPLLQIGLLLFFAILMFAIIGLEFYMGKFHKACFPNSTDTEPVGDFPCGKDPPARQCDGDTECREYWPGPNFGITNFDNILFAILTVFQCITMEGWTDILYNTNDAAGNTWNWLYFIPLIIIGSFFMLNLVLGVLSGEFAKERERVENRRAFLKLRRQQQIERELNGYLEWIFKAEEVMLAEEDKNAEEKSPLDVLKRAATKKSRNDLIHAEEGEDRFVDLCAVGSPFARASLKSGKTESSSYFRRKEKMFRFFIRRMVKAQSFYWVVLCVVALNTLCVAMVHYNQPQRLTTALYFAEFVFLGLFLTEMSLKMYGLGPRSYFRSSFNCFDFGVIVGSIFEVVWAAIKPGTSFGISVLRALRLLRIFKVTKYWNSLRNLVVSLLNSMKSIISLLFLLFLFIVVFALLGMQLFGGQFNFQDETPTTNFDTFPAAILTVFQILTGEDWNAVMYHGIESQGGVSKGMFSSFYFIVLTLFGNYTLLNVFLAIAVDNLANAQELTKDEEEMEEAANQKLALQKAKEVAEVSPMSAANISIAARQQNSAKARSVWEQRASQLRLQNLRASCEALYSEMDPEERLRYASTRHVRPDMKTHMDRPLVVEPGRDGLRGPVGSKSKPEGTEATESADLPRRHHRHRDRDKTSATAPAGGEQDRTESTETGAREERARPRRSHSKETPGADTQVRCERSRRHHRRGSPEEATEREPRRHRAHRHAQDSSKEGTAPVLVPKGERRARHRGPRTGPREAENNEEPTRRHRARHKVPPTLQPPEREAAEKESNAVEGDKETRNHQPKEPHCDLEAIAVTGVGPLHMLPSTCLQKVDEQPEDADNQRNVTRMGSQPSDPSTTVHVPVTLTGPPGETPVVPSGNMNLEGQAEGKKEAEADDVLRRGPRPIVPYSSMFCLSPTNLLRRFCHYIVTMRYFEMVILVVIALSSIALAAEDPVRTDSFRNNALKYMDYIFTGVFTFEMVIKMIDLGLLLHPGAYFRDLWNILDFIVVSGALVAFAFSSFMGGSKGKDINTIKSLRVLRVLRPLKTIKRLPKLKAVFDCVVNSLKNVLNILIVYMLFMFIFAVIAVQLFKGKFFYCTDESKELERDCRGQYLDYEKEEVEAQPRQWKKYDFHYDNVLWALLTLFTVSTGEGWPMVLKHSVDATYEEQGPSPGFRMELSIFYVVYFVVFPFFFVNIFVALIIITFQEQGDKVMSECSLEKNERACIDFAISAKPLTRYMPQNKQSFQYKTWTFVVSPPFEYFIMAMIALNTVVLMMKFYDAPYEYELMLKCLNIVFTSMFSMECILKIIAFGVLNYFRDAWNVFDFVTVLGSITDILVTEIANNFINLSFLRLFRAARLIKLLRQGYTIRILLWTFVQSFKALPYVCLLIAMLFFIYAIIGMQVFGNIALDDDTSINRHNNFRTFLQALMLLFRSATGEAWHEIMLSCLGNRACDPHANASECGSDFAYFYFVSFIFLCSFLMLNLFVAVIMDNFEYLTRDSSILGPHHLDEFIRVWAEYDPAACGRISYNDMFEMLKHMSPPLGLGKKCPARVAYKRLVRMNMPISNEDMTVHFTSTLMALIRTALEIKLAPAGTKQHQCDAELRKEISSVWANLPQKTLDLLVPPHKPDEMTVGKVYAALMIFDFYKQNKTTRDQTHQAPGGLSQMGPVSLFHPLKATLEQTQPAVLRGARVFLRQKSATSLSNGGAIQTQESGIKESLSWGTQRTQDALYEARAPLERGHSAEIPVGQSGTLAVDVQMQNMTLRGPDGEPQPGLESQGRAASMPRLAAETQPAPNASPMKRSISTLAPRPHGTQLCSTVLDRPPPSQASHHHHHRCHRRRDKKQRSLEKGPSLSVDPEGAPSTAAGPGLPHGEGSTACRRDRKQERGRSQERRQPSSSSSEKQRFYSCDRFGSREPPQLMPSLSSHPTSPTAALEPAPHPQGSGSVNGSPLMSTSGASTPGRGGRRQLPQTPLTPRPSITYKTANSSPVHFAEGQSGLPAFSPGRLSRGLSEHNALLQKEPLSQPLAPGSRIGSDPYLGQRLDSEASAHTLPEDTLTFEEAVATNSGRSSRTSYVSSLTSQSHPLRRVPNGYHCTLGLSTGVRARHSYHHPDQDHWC
N-type or omega HVA neuronal calcium channels; calcium currents in N1E-115 neuroblastoma cells, sequence (O08532 25-956 partner limits assumed): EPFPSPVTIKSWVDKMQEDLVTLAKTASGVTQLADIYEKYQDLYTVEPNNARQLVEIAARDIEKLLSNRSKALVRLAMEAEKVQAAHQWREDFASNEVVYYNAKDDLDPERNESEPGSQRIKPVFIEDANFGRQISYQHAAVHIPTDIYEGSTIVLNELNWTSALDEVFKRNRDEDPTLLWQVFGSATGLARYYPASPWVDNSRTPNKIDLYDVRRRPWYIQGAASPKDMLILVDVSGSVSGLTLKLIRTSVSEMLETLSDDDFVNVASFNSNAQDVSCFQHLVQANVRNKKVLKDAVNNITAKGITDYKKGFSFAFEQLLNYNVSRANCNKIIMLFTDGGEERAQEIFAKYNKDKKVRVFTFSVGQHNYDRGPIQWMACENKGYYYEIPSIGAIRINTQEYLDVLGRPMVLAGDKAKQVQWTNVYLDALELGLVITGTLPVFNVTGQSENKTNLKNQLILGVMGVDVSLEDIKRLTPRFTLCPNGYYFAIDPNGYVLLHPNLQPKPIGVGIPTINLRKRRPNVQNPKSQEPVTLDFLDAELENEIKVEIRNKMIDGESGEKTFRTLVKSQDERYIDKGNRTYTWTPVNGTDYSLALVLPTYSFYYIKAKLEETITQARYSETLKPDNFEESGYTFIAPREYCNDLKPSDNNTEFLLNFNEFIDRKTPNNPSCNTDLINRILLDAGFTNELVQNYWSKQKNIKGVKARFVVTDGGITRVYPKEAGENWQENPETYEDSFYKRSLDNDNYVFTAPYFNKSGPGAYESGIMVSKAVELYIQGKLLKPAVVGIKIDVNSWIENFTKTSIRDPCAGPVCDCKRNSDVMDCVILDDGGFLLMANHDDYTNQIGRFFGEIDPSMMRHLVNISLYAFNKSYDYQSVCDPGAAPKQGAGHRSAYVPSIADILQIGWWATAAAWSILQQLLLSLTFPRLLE
N-type or omega HVA neuronal calcium channels; calcium currents in N1E-115 neuroblastoma cells, sequence (O08532 957-1103 partner limits assumed): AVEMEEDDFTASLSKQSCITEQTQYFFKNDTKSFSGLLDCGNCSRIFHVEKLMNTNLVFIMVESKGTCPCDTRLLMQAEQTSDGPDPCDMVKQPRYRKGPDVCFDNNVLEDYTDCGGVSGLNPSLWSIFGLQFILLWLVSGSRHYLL

[5] = system: rat tail-flick latency to heat stimulus; conditions: in vivo

In the case of amiodipine, the “% inhibition of [3H]acetylcholine release” value [1] is reported as 0 and the “% inhibition of [3H]dopamine release” value [2] is reported as 0.
With cadmium the “effect of addition to the medium on remaining voltage-gated calcium currents” value [3] was “blockade of all remaining voltage-gated calcium currents”.
`COC(=O)C1=C(C)NC(C)=C(C(=O)OC)C1c1ccccc1[N+](=O)[O-]` [nifedipine] was tested, and the “effect on the measured calcium current” value [4] was “no effect”.
For `CN1CC[C@]23c4c5ccc(O)c4O[C@H]2[C@@H](O)C=C[C@H]3[C@H]1C5` [Morphine, morphine], the “Analgesia (% Effect), mean MPE” value [5] was 23, the “Latency Percent Effect, mean” value [5] was 17 and 19 and 18 and the “Latency Percent Effect, mean MPE” value [5] was 26.
